According to US11000033B2, “Ketone or oxime compound, and herbicide” (NISSAN CHEMICAL CORPORATION, priority 2014, dated 2021):

Assays:
Assay type in all cases: in vivo
[1] = test system: wheat; assay: Test Example 5: effect on crop by foliage application, plastic box (symbol e); conditions: 320 g/ha, 3 weeks after application
How it was run: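 A greenhouse held between 25° C. and 30° C. was used to grow plants sown spot-wise, beneath ~1.5 cm of soil, in boxes of sterilized diluvial soil.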

[2] = test system: Digitaria ciliaris; assay: Test Example 4: herbicidal effect by soil treatment (symbol F); conditions: for F (Digitaria ciliaris) herbicidal effect grade: application herbicide amount 320 g/ha; for F: Digitaria ciliaris, herbicidal effect grade: 320 g/ha
How it was run: (§1)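 Seeds were sown in sterilized diluvial soil, covered with about 1.5 cm of soil, and the soil surface was sprayed with a water-diluted emulsion of the compound at a predetermined rate. Plants grew in a greenhouse at 25° C. to 30° C.; effects were scored visually 3 weeks after application.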

[3] = test system: Stellaria media; assay: Test Example 4: herbicidal effect by soil treatment (symbol P); conditions: for P (Stellaria media) herbicidal effect grade: application herbicide amount 320 g/ha; for P: Stellaria media, herbicidal effect grade: 320 g/ha
How it was run: as §1

[4] = test system: Abutilon theophrasti; assay: Test Example 5: herbicidal effect by foliage application, plastic box (symbol M); conditions: 320 g/ha, 3 weeks after application
How it was run: (§2)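 Greenhouse foliar test: seedlings at 14 days, grown 25° C. to 30° C. in sterilized diluvial soil; compound applied as an aqueous dilution of an emulsion; response read 3 weeks after spraying.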

[5] = test system: Avena fatua; assay: Test Example 4: herbicidal effect by soil treatment (symbol I); conditions: for I (Avena fatua) herbicidal effect grade: application herbicide amount 320 g/ha; for I: Avena fatua, herbicidal effect grade: 320 g/ha
How it was run: as §1

[6] = test system: beet; assay: Test Example 4: effect on crop by soil treatment (symbol f); conditions: for f (beet) effect on crop grade: application herbicide amount 320 g/ha; for f: beet, effect grade on crop: 320 g/ha
How it was run: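 Diluvial soil (sterilized) in boxes; seeds placed spot-wise alongside weed species; ~1.5 cm covering soil. Greenhouse, 25–30° C.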

[7] = test system: directly sowed rice plant; assay: Test Example 3: effect on crop by foliage application, Wagner pot (symbol b); conditions: application herbicide amount 320 g/ha
How it was run: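 Alluvial soil in a 1/10000-are Wagner pot was flooded to a water depth of 0.1–0.5 cm. Echinochloa crus-galli var. crus-galli, Leptochloa chinensis, Cyperus difformis and rice were sown into it and grown in a greenhouse at 25–30 °C.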

[8] = test system: Avena fatua; assay: Test Example 5: herbicidal effect by foliage application, plastic box (symbol I); conditions: 320 g/ha, 3 weeks after application
How it was run: as §2

[9] = test system: Leptochloa chinensis; assay: Test Example 3: herbicidal effect by foliage application, Wagner pot (symbol D); conditions: application herbicide amount 320 g/ha
How it was run: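 Seeds sown in alluvial soil kept under 0.1–0.5 cm water, greenhouse 25–30 °C; 14 d growth. Leaves treated by small sprayer with water-diluted emulsion at a predetermined rate. Effect graded by set scale, 3 weeks.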

[10] = test system: Abutilon theophrasti; assay: Test Example 4: herbicidal effect by soil treatment (symbol M); conditions: for M (Abutilon theophrasti) herbicidal effect grade: application herbicide amount 320 g/ha; for M: Abutilon theophrasti, herbicidal effect grade: 320 g/ha
How it was run: as §1

[11] = test system: corn; assay: Test Example 4: effect on crop by soil treatment (symbol c); conditions: for c (corn) effect on crop grade: application herbicide amount 320 g/ha; for c: corn, effect grade on crop: 320 g/ha
How it was run: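 Soil-treatment setup: crop and weed seeds were spot-sown into sterilized diluvial soil, then buried beneath approximately 1.5 cm of it, and the boxes were housed in a 25–30° C. greenhouse.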

[12] = test system: Scirpus juncoides; assay: Test Example 2: herbicidal activity, application during weed generation in submerged conditions (symbol B); conditions: Table 23; application herbicide amount 320 g/ha; grade 0-5 by criteria of Test Example 1
How it was run: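 Each pot contained alluvial soil under 4 cm of water with seeds of all three weeds sown together. Following growth at 25° C. to 30° C. to the one- to two-leaf stage, the floodwater received diluted emulsion at a predetermined amount; visual assessment followed at 3 weeks.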

[13] = test system: Lolium multiflorum Lam.; assay: Test Example 5: herbicidal effect by foliage application, plastic box (symbol K); conditions: 320 g/ha, 3 weeks after application
How it was run: as §2

Row | SMILES | e: wheat, effect on crop grade [1] | F (Digitaria ciliaris) herbicidal effect grade [2] | P (Stellaria media) herbicidal effect grade [3] | M: Abutilon theophrasti, herbicidal effect grade [4] | I (Avena fatua) herbicidal effect grade [5] | f (beet) effect on crop grade [6] | effect on crop b (directly sowed rice plant), grade 0-5 [7] | I: Avena fatua, herbicidal effect grade [8] | herbicidal effect on D (Leptochloa chinensis), grade 0-5 [9] | M (Abutilon theophrasti) herbicidal effect grade [10] | c (corn) effect on crop grade [11] | Herbicidal effect grade, B: Scirpus juncoides [12] | K: Lolium multiflorum Lam., herbicidal effect grade [13] | e: wheat, effect on crop (criteria 0-5) [1] | F: Digitaria ciliaris, herbicidal effect grade [2] | P: Stellaria media, herbicidal effect grade [3] | M: Abutilon theophrasti, herbicidal effect (criteria 0-5) [4] | I: Avena fatua, herbicidal effect grade [5] | f: beet, effect grade on crop [6] | I: Avena fatua, herbicidal effect (criteria 0-5) [8] | also measured
1 | CC(CC1CC(O)=C(c2c(C)cc(C)cc2C)C1=O)=NOCC[Si](C)(C)C (stereo not drawn) [1-055] | 0 (Herbicidal ratio of 5% or lower (almost no effect)) | 5 (Herbicidal ratio of 90% or more (almost completely withered)) | 0 (Herbicidal ratio of 5% or lower (almost no effect)) | 0 (Herbicidal ratio of 5% or lower (almost no effect)) | 0 (Herbicidal ratio of 5% or lower (almost no effect)) | 0 (Herbicidal ratio of 5% or lower (almost no effect)) | 5 (Herbicidal ratio of 90% or more (almost completely withered)) | 4 (Herbicidal ratio of 70% or higher and lower than 90%) | 5 (Herbicidal ratio of 90% or more (almost completely withered)) | 0 (Herbicidal ratio of 5% or lower (almost no effect)) | 0 (Herbicidal ratio of 5% or lower (almost no effect)) | 0 (Herbicidal ratio of 5% or lower (almost no effect)) | 5 (Herbicidal ratio of 90% or more (almost completely withered)) | – | – | – | – | – | – | – | –
2 | CCCCCCCCC(=O)OC1=C(c2c(C)cc(C)cc2C)C(=O)C(CC(C)=NOC)C1 (stereo not drawn) [1-033] | 5 (Herbicidal ratio of 90% or more (almost completely withered)) | 5 (Herbicidal ratio of 90% or more (almost completely withered)) | 0 (Herbicidal ratio of 5% or lower (almost no effect)) | 4 (Herbicidal ratio of 70% or higher and lower than 90%) | 4 (Herbicidal ratio of 70% or higher and lower than 90%) | 1 (Herbicidal ratio of 5% or higher and lower than 20%) | 5 (Herbicidal ratio of 90% or more (almost completely withered)) | 5 (Herbicidal ratio of 90% or more (almost completely withered)) | 5 (Herbicidal ratio of 90% or more (almost completely withered)) | 5 (Herbicidal ratio of 90% or more (almost completely withered)) | 4 (Herbicidal ratio of 70% or higher and lower than 90%) | 4 (Herbicidal ratio of 70% or higher and lower than 90%) | 5 (Herbicidal ratio of 90% or more (almost completely withered)) | – | – | – | – | – | – | – | –
3 | CON=C(C)CC1CC(OCC#C[Si](C)(C)C)=C(c2c(C)cc(C)cc2C)C1=O (stereo not drawn) [1-031] | 0 (Herbicidal ratio of 5% or lower (almost no effect)) | 0 (Herbicidal ratio of 5% or lower (almost no effect)) | 0 (Herbicidal ratio of 5% or lower (almost no effect)) | 0 (Herbicidal ratio of 5% or lower (almost no effect)) | 0 (Herbicidal ratio of 5% or lower (almost no effect)) | 0 (Herbicidal ratio of 5% or lower (almost no effect)) | 5 (Herbicidal ratio of 90% or more (almost completely withered)) | 3 (Herbicidal ratio of 40% or higher and lower than 70%) | 4 (Herbicidal ratio of 70% or higher and lower than 90%) | 0 (Herbicidal ratio of 5% or lower (almost no effect)) | 0 (Herbicidal ratio of 5% or lower (almost no effect)) | 2 (Herbicidal ratio of 20% or higher and lower than 40%) | 4 (Herbicidal ratio of 70% or higher and lower than 90%) | – | – | – | – | – | – | – | –
4 | CON=C(C)CC1CC(OC(=O)COCC(F)(F)F)=C(c2c(C)cc(C)cc2C)C1=O (stereo not drawn) [1-092] | – | – | – | – | – | – | 5 (Herbicidal ratio of 90% or more (almost completely withered)) | – | 5 (Herbicidal ratio of 90% or more (almost completely withered)) | – | – | 4 (Herbicidal ratio of 70% or higher and lower than 90%) | – | 4 (Herbicidal ratio of 70% or higher and lower than 90%) | 5 (Herbicidal ratio of 90% or more (almost completely withered)) | 0 (Herbicidal ratio of 5% or lower (almost no effect)) | 3 (Herbicidal ratio of 40% or higher and lower than 70%) | 2 (Herbicidal ratio of 20% or higher and lower than 40%) | 0 (Herbicidal ratio of 5% or lower (almost no effect)) | 2 (Herbicidal ratio of 20% or higher and lower than 40%) | M: Abutilon theophrasti, herbicidal effect grade [10]: 3 (Herbicidal ratio of 40% or higher and lower than 70%); c: corn, effect grade on crop [11]: 5 (Herbicidal ratio of 90% or more (almost completely withered)); K: Lolium multiflorum Lam., herbicidal effect (criteria 0-5) [13]: 5 (Herbicidal ratio of 90% or more (almost completely withered))
5 | CON=C(C)CC1CC(OC(=O)C=Cc2ccco2)=C(c2c(C)cc(C)cc2C)C1=O (stereo not drawn) [1-091] | – | – | – | – | – | – | 5 (Herbicidal ratio of 90% or more (almost completely withered)) | – | 5 (Herbicidal ratio of 90% or more (almost completely withered)) | – | – | 3 (Herbicidal ratio of 40% or higher and lower than 70%) | – | 5 (Herbicidal ratio of 90% or more (almost completely withered)) | 5 (Herbicidal ratio of 90% or more (almost completely withered)) | 0 (Herbicidal ratio of 5% or lower (almost no effect)) | 4 (Herbicidal ratio of 70% or higher and lower than 90%) | 3 (Herbicidal ratio of 40% or higher and lower than 70%) | 0 (Herbicidal ratio of 5% or lower (almost no effect)) | 5 (Herbicidal ratio of 90% or more (almost completely withered)) | M: Abutilon theophrasti, herbicidal effect grade [10]: 1 (Herbicidal ratio of 5% or higher and lower than 20%); c: corn, effect grade on crop [11]: 5 (Herbicidal ratio of 90% or more (almost completely withered)); K: Lolium multiflorum Lam., herbicidal effect (criteria 0-5) [13]: 5 (Herbicidal ratio of 90% or more (almost completely withered))
6 | CON=C(C)CC1CC(OC)=C(c2c(C)cc(C)cc2C)C1=O (stereo not drawn) [1-001, 2-mesityl-3-methoxy-5-{2-(methoxyimino)propyl}cyclopent-2-enone] | 0 (Herbicidal ratio of 5% or lower (almost no effect)) | 0 (Herbicidal ratio of 5% or lower (almost no effect)) | 0 (Herbicidal ratio of 5% or lower (almost no effect)) | 0 (Herbicidal ratio of 5% or lower (almost no effect)) | 0 (Herbicidal ratio of 5% or lower (almost no effect)) | 0 (Herbicidal ratio of 5% or lower (almost no effect)) | 0 (Herbicidal ratio of 5% or lower (almost no effect)) | 0 (Herbicidal ratio of 5% or lower (almost no effect)) | 0 (Herbicidal ratio of 5% or lower (almost no effect)) | 0 (Herbicidal ratio of 5% or lower (almost no effect)) | 0 (Herbicidal ratio of 5% or lower (almost no effect)) | 0 (Herbicidal ratio of 5% or lower (almost no effect)) | 0 (Herbicidal ratio of 5% or lower (almost no effect)) | – | – | – | – | – | – | – | –
